According to patent US20210290676A1, “IMPROVING THE EFFICACY AND SAFETY OF ADOPTIVE CELLULAR THERAPIES” (University of Southern California, priority 2018, published 2021):

Columns and labels:
Assay type in all cases: cell-based, human
[1] = test system: CD45RA+CCR7+CD62L+ T cells; assay: Flow cytometry for CD45RA, CCR7 and CD62L on inhibitor-treated T cells (all T cells); details: for % of CD62L+CCR7+ double positive cells out of CD45RA+ cells in live T cell population: 13 days treatment
Procedure: (§1) DAY 0: Blood was obtained from unidentified donor. After RBC lysis, PBMC were collected using Ficoll-Hypaque separation. […] T cells were cultured in three different conditions: • 1. XVIVO 15 medium (Lonza) with IL2 50 IU/ml, CD3 antibody (30 ng/ml) and CD28 antibody (30 ng/ml). • 2. XVIVO 15 medium (Lonza) with CD3 antibody (30 ng/ml) and CD28 antibody (30 ng/ml). • 3. XVIVO 15 medium (Lonza) with IL2 50 IU/ml DAY 1: Cells were plated in a 6-well plate at a density of 1 million cells in 2 ml/of media (as described above) and treated with different inhibitors
(§2) A second aliquot of the cells cultured for 13 days with all the treatments listed above (1-21) was washed with PBS+1% FBS, stained with CD8-PerCP, CD45RA-FITC, CCR7-PE and CD62L-APC (5% Y/100 μl/sample for each of 4 antibodies) at 4° C. for 1 h, washed twice with PBS+100 FBS and analyzed on flow cytometer to check if these drugs are enriching T stem cells showing surface expression of CD8+CD45RA+CCR7+CD62L+.
(§3) Day 0: Blood was obtained from unidentified donor. After RBC lysis, PBMC were collected using Ficoll-Hypaque separation. 200 million T cells were isolated from PBMCs using CD3 microbeads. T cells were cultured overnight in XVIVO 15 medium (Lonza) with IL2 (50 IU/ml), 30 ng/ml of CD3 and CD28 antibodies
(§4) Day 1: Cells were plated in 24-well plates at a density of 0.3 million cells/ml in each well and treated with different drugs.
(§5) On day 7, culture medium was replaced with fresh medium with fresh drugs.
(§6) On day 13, culture medium was replaced with fresh medium and fresh drugs. Half of the cells were transferred to 6-well plates.
as §2, with “14” for “13”, “above” for “above (1-21)”, “(5 ul/100 ul/sample” for “(5% Y/100 μl/sample”, “PBS+1%” for “PBS+100”, “enriching for” for “enriching”, “T” for “T stem”

[2] = test system: Pgp+ (DiOC2(3)-dye effluxing cells) and CD62L+ T cells; assay: DiOC2(3) dye efflux plus CD62L-APC staining, flow cytometry of inhibitor-treated T cells; details: for p5: double +ve pgp+ and CD62L-APC+ from Live cells: treatment for 13 days, IL2 + CD3 and CD28 antibodies
Procedure: (§7) The use of P-glycoprotein (Pgp)-mediated efflux of DiOC2(3) to isolate stem like T cells for adoptive cellular therapy has been described in application no. […] In the following examples, DiOC2(3) staining was used to study the effect of different inhibitors on generation of stem like T cells.
as §1
(§8) The cell growth medium was changed in 6-well plates and fresh drugs were added at same concentration for one more week.
(§9) […] (DAY 11): Culture medium was changed and fresh drugs were added in 6-well plates.
(§10) Subsequently, cells were washed with RPMI medium and dye was effluxed at 37° C. for 90 min. Cells were washed with […], stained with CD62L-APC (5 μl/100 μl/sample) at 4° C. for 1 h, washed twice with PBS+1% FBS and analyzed on flow cytometer to check if these drugs treatment leads to increase in Pgp+/CD62L positive population.
as §3, §4, §5, §6
(§11) Day 14: An aliquot of cells with all the treatments listed above (for 13 days) was used to stain the cells with DiOC2(3) (60 ng/ml in RPMI medium) at 4° C. for 40 min, washed with RPMI medium, DiOC2(3) dye was effluxed at 37° C. for 90 min, washed with PBS+1% FBS, stained with CD62L-APC antibody. CD62L is a marker for resting T cells. (5 μl/100 μl/sample) at 4° C. for 1 h, washed twice with PBS+1% FBS and analyzed on flow cytometer to check if these drugs are affecting the dye-effluxing or Pgp+ (i.e., DiOC2(3)-dull) T-cell population.

[3] = test system: CD8+CD45RA+CCR7+CD62L+ T cells; assay: Flow cytometry for CD8, CD45RA, CCR7 and CD62L on inhibitor-treated T cells; details: for % of CD62L+CCR7+ double positive cells out of CD45RA+ cells in CD8+ T cell population: 13 days of treatment
Procedure: as §1, §2, §3, §4, §5, §6
as §2, with “14” for “13”, “above” for “above (1-21)”, “(5 ul/100 ul/sample” for “(5% Y/100 μl/sample”, “PBS+1%” for “PBS+100”, “enriching for” for “enriching”, “T” for “T stem”

[4] = test system: Pgp+ (DiOC2(3)-dye effluxing) T cells; assay: DiOC2(3) dye efflux flow cytometry of inhibitor-treated T cells; details: for p2: pgp+ from Live cells: treatment for 13 days, IL2 + CD3 and CD28 antibodies
Procedure: as §7, §1, §8, §9, §10, §3, §4, §5, §6, §11

[5] = 500 nM, cells cultured for 14 days
[6] = CD3-CD28-IL2 culture, inhibitor 10 nM
[7] = CD3-CD28-IL2 culture, inhibitor 100 nM
[8] = CD3-CD28-IL2 culture, inhibitor 200 nM
[9] = CD3-CD28 culture, inhibitor 10 nM
[10] = CD3-CD28 culture, inhibitor 100 nM
[11] = CD3-CD28 culture, inhibitor 200 nM
[12] = CD3-IL2 culture, inhibitor 10 nM
[13] = CD3-IL2 culture, inhibitor 100 nM
[14] = CD3-IL2 culture, inhibitor 200 nM

Structure (SMILES): O=C1CN=C(c2ccc[nH]2)c2cc(Cl)ccc2N1 [R05335]
- GATE P6 CD45RA(FITC)+, CCR7 (PE)+, CD62L(APC) [1, 5]: 69.95%
- p5: double +ve pgp+ and CD62L-APC+ from Live cells ([2]; 100 nM): 2.55
- p5: double +ve pgp+ and CD62L-APC+ from Live cells ([2]; 500 nM): 2.3
- GATE P4 CD8(PerCP)+, CD45RA(FITC)+, CCR7 (PE)+, CD62L(APC) [3, 5]: 79.9%
- p2: pgp+ from Live cells ([4]; 100 nM): 14.71
- p2: pgp+ from Live cells ([4]; 500 nM): 16.22

Structure (SMILES): CCN(c1cc(-c2ccc(CN3CCOCC3)cc2)cc(C(=O)NCc2c(C)cc(C)[nH]c2=O)c1C)C1CCOCC1 [Tazemetostat]
- % of CD62L+CCR7+ double positive cells out of CD45RA+ cells in live T cell population [1, 6]: 50.85%
- % of CD62L+CCR7+ double positive cells out of CD45RA+ cells in live T cell population [1, 7]: 67.51%
- % of CD62L+CCR7+ double positive cells out of CD45RA+ cells in live T cell population [1, 8]: 66.36%
- % of CD62L+CCR7+ double positive cells out of CD45RA+ cells in live T cell population [1, 9]: 77.81%
- % of CD62L+CCR7+ double positive cells out of CD45RA+ cells in live T cell population [1, 10]: 79.62%
- % of CD62L+CCR7+ double positive cells out of CD45RA+ cells in live T cell population [1, 11]: 78.45%
- % of CD62L+CCR7+ double positive cells out of CD45RA+ cells in live T cell population [1, 12]: 67.30%
- % of CD62L+CCR7+ double positive cells out of CD45RA+ cells in live T cell population [1, 13]: 63.89%
- % of CD62L+CCR7+ double positive cells out of CD45RA+ cells in live T cell population [1, 14]: 59.08%
- % of Pgp+ CD62L+cells out of live cells ([2]; CD3-CD28-IL2 culture, inhibitor 10 nM, 6 days treatment): 8.42%
- % of Pgp+ CD62L+cells out of live cells ([2]; CD3-CD28-IL2 culture, inhibitor 10 nM, 13 days treatment): 8.03%
- % of Pgp+ CD62L+cells out of live cells ([2]; CD3-CD28-IL2 culture, inhibitor 100 nM, 6 days treatment): 13.16%
- % of Pgp+ CD62L+cells out of live cells ([2]; CD3-CD28-IL2 culture, inhibitor 100 nM, 13 days treatment): 12.57%
- % of Pgp+ CD62L+cells out of live cells ([2]; CD3-CD28-IL2 culture, inhibitor 200 nM, 6 days treatment): 11.30%
- % of Pgp+ CD62L+cells out of live cells ([2]; CD3-CD28-IL2 culture, inhibitor 200 nM, 13 days treatment): 14.25%
- % of Pgp+ CD62L+cells out of live cells ([2]; CD3-CD28 culture, inhibitor 10 nM, 6 days treatment): 19.36%
- % of Pgp+ CD62L+cells out of live cells ([2]; CD3-CD28 culture, inhibitor 10 nM, 13 days treatment): 2.95%
- % of Pgp+ CD62L+cells out of live cells ([2]; CD3-CD28 culture, inhibitor 100 nM, 6 days treatment): 18.38%
- % of Pgp+ CD62L+cells out of live cells ([2]; CD3-CD28 culture, inhibitor 100 nM, 13 days treatment): 1.18%
- % of Pgp+ CD62L+cells out of live cells ([2]; CD3-CD28 culture, inhibitor 200 nM, 6 days treatment): 20.94%
- % of Pgp+ CD62L+cells out of live cells ([2]; CD3-CD28 culture, inhibitor 200 nM, 13 days treatment): 2.66%
- % of Pgp+ CD62L+cells out of live cells ([2]; CD3-IL2 culture, inhibitor 10 nM, 6 days treatment): 8.76%
- % of Pgp+ CD62L+cells out of live cells ([2]; CD3-IL2 culture, inhibitor 10 nM, 13 days treatment): 9.87%
- % of Pgp+ CD62L+cells out of live cells ([2]; CD3-IL2 culture, inhibitor 100 nM, 6 days treatment): 10.11%
- % of Pgp+ CD62L+cells out of live cells ([2]; CD3-IL2 culture, inhibitor 100 nM, 13 days treatment): 4.31%
- % of Pgp+ CD62L+cells out of live cells ([2]; CD3-IL2 culture, inhibitor 200 nM, 6 days treatment): 11.97%
- % of Pgp+ CD62L+cells out of live cells ([2]; CD3-IL2 culture, inhibitor 200 nM, 13 days treatment): 9.08%
- percentage of Pgp+CD62L+ cells ([2]; culture with CD3 antibody, CD28 antibody and IL2, 6 days of treatment, 100 nM): 13.168%
- % of CD62L+CCR7+ double positive cells out of CD45RA+ cells in CD8+ T cell population [3, 6]: 62.73%
- % of CD62L+CCR7+ double positive cells out of CD45RA+ cells in CD8+ T cell population [3, 7]: 83.53%
- % of CD62L+CCR7+ double positive cells out of CD45RA+ cells in CD8+ T cell population [3, 8]: 80.78%
- % of CD62L+CCR7+ double positive cells out of CD45RA+ cells in CD8+ T cell population [3, 9]: 87.00%
- % of CD62L+CCR7+ double positive cells out of CD45RA+ cells in CD8+ T cell population [3, 10]: 88.26%
- % of CD62L+CCR7+ double positive cells out of CD45RA+ cells in CD8+ T cell population [3, 11]: 88.37%
- % of CD62L+CCR7+ double positive cells out of CD45RA+ cells in CD8+ T cell population [3, 12]: 82.23%
- % of CD62L+CCR7+ double positive cells out of CD45RA+ cells in CD8+ T cell population [3, 13]: 79.86%
- % of CD62L+CCR7+ double positive cells out of CD45RA+ cells in CD8+ T cell population [3, 14]: 77.35%
- % of Pgp+ cells out of live cells ([4]; CD3-CD28-IL2 culture, inhibitor 10 nM, 6 days of treatment): 21.86%
- % of Pgp+ cells out of live cells ([4]; CD3-CD28-IL2 culture, inhibitor 10 nM, 13 days of treatment): 30.38%
- % of Pgp+ cells out of live cells ([4]; CD3-CD28-IL2 culture, inhibitor 100 nM, 6 days of treatment): 27.17%
- % of Pgp+ cells out of live cells ([4]; CD3-CD28-IL2 culture, inhibitor 100 nM, 13 days of treatment): 38.45%
- % of Pgp+ cells out of live cells ([4]; CD3-CD28-IL2 culture, inhibitor 200 nM, 6 days of treatment): 24.85%
- % of Pgp+ cells out of live cells ([4]; CD3-CD28-IL2 culture, inhibitor 200 nM, 13 days of treatment): 41.22%
- % of Pgp+ cells out of live cells ([4]; CD3-CD28 culture, inhibitor 10 nM, 6 days of treatment): 39.28%
- % of Pgp+ cells out of live cells ([4]; CD3-CD28 culture, inhibitor 10 nM, 13 days of treatment): 12.41%
- % of Pgp+ cells out of live cells ([4]; CD3-CD28 culture, inhibitor 100 nM, 6 days of treatment): 40.50%
- % of Pgp+ cells out of live cells ([4]; CD3-CD28 culture, inhibitor 100 nM, 13 days of treatment): 5.19%
- % of Pgp+ cells out of live cells ([4]; CD3-CD28 culture, inhibitor 200 nM, 6 days of treatment): 43.11%
- % of Pgp+ cells out of live cells ([4]; CD3-CD28 culture, inhibitor 200 nM, 13 days of treatment): 11.82%
- % of Pgp+ cells out of live cells ([4]; CD3-IL2 culture, inhibitor 10 nM, 6 days of treatment): 24.77%
- % of Pgp+ cells out of live cells ([4]; CD3-IL2 culture, inhibitor 10 nM, 13 days of treatment): 28.61%
- % of Pgp+ cells out of live cells ([4]; CD3-IL2 culture, inhibitor 100 nM, 6 days of treatment): 25.31%
- % of Pgp+ cells out of live cells ([4]; CD3-IL2 culture, inhibitor 100 nM, 13 days of treatment): 16.74%
- % of Pgp+ cells out of live cells ([4]; CD3-IL2 culture, inhibitor 200 nM, 6 days of treatment): 25.89%
- % of Pgp+ cells out of live cells ([4]; CD3-IL2 culture, inhibitor 200 nM, 13 days of treatment): 28.06%
- percentage of Pgp+ cells ([4]; culture with CD3 antibody, CD28 antibody and IL2, 6 days of treatment, 10 nM): 27.17%
